Patent publication US7875609B2, “Urea derivatives, processes for their preparation, their use as medicaments, and pharmaceutical compositions containing them” (Galapagos Sasu, priority 2005, dated 2011)
Where a name gives a salt, the structure may show the parent alone.

Key:
[1] = system: serum level of PTH (1-34+1-84); assay: PTH measurement on intact rats (serum PTH by IRMA after oral administration); assay type: in vivo, rat; conditions: for inhibition in vivo at 30 mg/kg: Rattus norvegicus, 0.5 h, oral, male Sprague-Dawley rats fasted 16 h, serum 30 min after dosing, read-out: % PTH reduction at 30 min. relative to the untreated group (intact rat)
Description: I—PTH Measurement on Intact Rats
After fasting for 16 hours, some male rats (Sprague-Dawley, 250-300 g, Charles River France or CERJ) received an oral administration of the compounds to be tested or their vehicle. 30 min. after this bolus, the animals were slaughtered by decapitation using a guillotine. The arterial and venous blood was collected at 4° C. and centrifuged cold, then the sera were frozen at −20° C. After thawing, the serum level of PTH (1-34+1-84) was measured by a radioimmunology test (IRMA kit, rat, Immutopics).

[2] = system: serum level of PTH (1-34+1-84); assay: PTH measurement in rats with chronic renal failure (5/6 nephrectomy); assay type: in vivo, rat; conditions: oral, dose 10 mg/kg, 5/6 nephrectomised rats, ten days after nephrectomy, fasted 16 h, serum 30 min after dosing
From the text: II—Rats with Chronic Renal Failure
Chronic renal failure (CRF) was induced in male rats (220-250 g, Sprague-Dawley, CERJ) by ablation of ⅚ of the total renal mass. After anaesthesia (Imalgene 1000), the rats were subjected to exeresis of the right kidney and ablation of both ends of the left kidney, representing approximately ⅔ of the organ).
The incision was cauterised by application of dry ice. To compensate for the loss of blood volume, the animals received an intravenous injection of physiological serum. Two days after the procedure and for the remainder of the trial, the rats were fed with a standard diet (UAR or Safe) and drank phosphate-enriched (1.2%) Volvic® water at will. The procedure was carried out either at the supplier's or at the laboratory. Ten days after nephrectomy, the animals which had been fasting for 16 hours entered the trial. The compounds to be tested or their vehicle were administered orally 30 min. prior to sacrifice. The arterial and venous blood was at 4° C. after decapitation using a guillotine and was centrifuged cold. The sera were frozen a −20° C. After thawing, the serum level of PTH (1-34+1-84) was measured by a radioimmunology test (IRMA kit, rat, Immutopics).

SMILES | inhibition in vivo at 30 mg/kg [1] [%] | % PTH reduction at 30 min. relative to the untreated group (CRF rat) [2] [%] | PTH level reduced relative to the control group ([1]; oral administration, dose of 30 mg/kg, intact rats, 30 min) [%]
Cn1nnc(-c2cccc(NC(=O)N(CCC(c3ccccc3)c3ccccc3)CCN3CCOCC3)c2)n1 (single isomer, unassigned) [Example 85, 1-(3,3-diphenylpropyl)-3-[3-(2-methyl-2H-tetrazol-5-yl)phenyl]-1-(2-morpholin-4-ylethyl)urea] | 88 | 70 | –
COC(=O)c1cccc(NC(=O)N(CCC(c2ccccc2)c2ccccc2)CCN2CCOCC2)c1 [Example 1, 3-[3-(3,3-diphenylpropyl)-3-(2-morpholin-4-ylethyl)ureido]benzoic acid methyl ester] | 56 | – | –
CC(C)(C)OC(=O)c1cccc(NC(=O)N(CCC(c2ccccc2)c2ccccc2)CCN2CCOCC2)c1 [Example 40, 3-[3-(3,3-diphenylpropyl)-3-(2-morpholin-4-ylethyl)ureido]benzoic acid tertbutyl ester hydrochloride] | 21 | – | –
CCC(=O)c1cccc(NC(=O)N(CCC(c2ccccc2)c2ccccc2)CCN2CCOCC2)c1 [Example 42] | 69 | – | –
O=C(Nc1ccc(Cl)c(C(F)(F)F)c1)N(CCC(c1ccccc1)c1ccccc1)CCN1CCOCC1 [Example 43, 3-(4-chloro-3-trifluoromethylphenyl)-1-(3,3-diphenylpropyl)-1-(2-morpholin-4-ylethyl)urea hydrochloride] | 43 | – | –
CC(C)OC(=O)c1cccc(NC(=O)N(CCC(c2ccccc2)c2ccccc2)CCN2CCOCC2)c1 [Example 48, 3-[3-(3,3-diphenylpropyl)-3-(2-morpholin-4-ylethyl)ureido]benzoic acid isopropyl ester hydrochloride] | 32 | – | –
CC(C)OC(=O)c1cc(NC(=O)N(CCC(c2ccccc2)c2ccccc2)CCN2CCOCC2)ccc1Cl [Example 51, 2-chloro-5-[3-(3,3-diphenylpropyl)-3-(2-morpholin-4-ylethyl)ureido]benzoic acid isopropyl ester hydrochloride] | 13 | – | –
Cl.O=C(Nc1cccc(-c2cnco2)c1)N(CCC(c1ccccc1)c1ccccc1)CCN1CCOCC1 [Example 68, 1-(3,3-diphenylpropyl)-1-(2-morpholin-4-ylethyl)-3-(3-oxazol-5-ylphenyl)urea hydrochloride] | 94 | 67 | 94
O=C(Nc1cccc(-c2ccco2)c1)N(CCC(c1ccccc1)c1ccccc1)CCN1CCOCC1 [Example 76A, 1-(3,3-diphenylpropyl)-3-(3-furan-2-ylphenyl)-1-(2-morpholin-4-ylethyl)urea hydrochloride] | 14 | – | –
